# Assay results taken from patent US7655414B2, “Determination of responders to chemotherapy” (Hoffman La-Roche Inc., priority 2005, dated 2010).
# Assays:
# [1] = tested on: non-small-cell lung cancer (NSCLC); conditions: single-agent erlotinib, second- or third-line therapy; placebo 4.7 months; statistically significant improvement; cited from earlier work
# NSCLC = conditions: erlotinib plus carboplatin and paclitaxel; cited from earlier work
# [2] = tested on: first-line NSCLC patients; conditions: erlotinib 150 mg/day plus gemcitabine and cisplatin compared with gemcitabine and cisplatin alone; cited from earlier work
# [3] = tested on: non-small-cell lung cancer (NSCLC); experiment: Clinical study BO16411: Tarceva plus gemcitabine/cisplatin versus placebo plus gemcitabine/cisplatin, with pMAPK/pAKT IHC biomarker subset; assay type: in vivo, human
# Method: Biomarker analyses were performed on a sample subset of 141 patients, for which formalin-fixed paraffin embedded (FFPE) tissue blocks from initial diagnosis had been received.
# One pathologist evaluated all immunostainings. The nuclear staining intensity (pAKT, pMAPK) was estimated by visual inspection in a four step scale (0, 1, 2, 3). In addition to nuclear staining intensity, the percentage of positive cells, and the reason for analysis failure (i.e. lack of tumor cells in the tissue spot or lack of the tissue spot on the TMA slide) was recorded. Exploratory Statistical Analysis:
# The basic statistics and interdependencies of the different markers were descriptively investigated. Methodological analyses comparing different measurement approaches, e.g. for IHC, were performed with regard to reliability and validity.
# The p-values emerging from these analyses are not to be interpreted in a confirmative sense; they are to be seen as a special descriptive tool in order to guide the exploration towards an efficient candidate prediction rule. Markers were evaluated on a univariate level regarding their potential for prediction (e.g. search for cut-offs) of the clinical endpoints. Further multivariate techniques (e.g. Linear Discriminant Analysis, Multiple Logistic Regression, Principal Component Analysis with Rotation, Cluster Analysis, CART methodology) were employed in order to study combinations of markers. Biomarker and response correlations with clinical covariates were investigated. Candidate groupings derived from biomarkers were checked with time to event variables (Kaplan-Meier curves, Cox proportional hazard model, logrank test).
# The patient subset with samples for biomarker analysis was compared to the overall study population regarding baseline patient characteristics and clinical outcome parameters.
# For determining correlation between pMAPK expression and clincal outcome, cut-off values were established by descriptive statistical analysis: Franklin H-score was determined by combining staining intensity and percentage of stained tumor cells (pMAPK_hsco=(pMAPK_Nuclear_Staining+1)*pMAPK_Nuclear_Pos_Cells; range: 0-400). “Positive” pMAPK staining was defined by H-scores of =/>100, else the staining was “negative”.
# “Positive” pAKT staining was defined by H-scores of =/>300, else the staining was “negative”.
smiles,measurement,setting,value
"C#Cc1cccc(Nc2ncnc3cc(OCCOC)c(OCCOC)cc23)c1 [Tarceva®, N-(3-ethynylphenyl)-6,7-bis(2-methoxyethoxy) quinazolin-4-amine]",Survival,[1],6.7 months
same,Outcome compared with TALENT (no benefit of adding erlotinib),NSCLC,Identical results
same,Benefit on primary (survival duration) and secondary endpoints,[2],no demonstrable benefit
same,"HR, benefit from chemotherapy/Tarceva combo","[3]; ""Positive pMAPK"" patients (H-score =/>100), p: 0.0516",0.500
same,"Hazard Ratio, time to progression/death","[3]; COX model without covariates, pAKT1 data set, trtgr only",1.269
same,"Hazard Ratio, time to progression/death","[3]; COX model without covariates, pMAPK data set, trtgr only",1.320
same,"Hazard Ratio, time to progression/death","[3]; COX model, trtgr in patients with pAKT1 H-Score ≧ 300",1.262
same,"Hazard Ratio, time to progression/death","[3]; COX model, trtgr in patients with pMAPK H-Score < 100",1.634
same,"Hazard Ratio, time to progression/death","[3]; COX model, trtgr in patients with pMAPK H-Score ≧ 100",0.773
same,Responders (%),"[3]; Main clinical population, Tarceva + gemcitabine/cisplatin arm (N = 396)",42.4%
same,Responders (%),"[3]; Patient subset with IHC/FISH biomarker data, Tarceva + gemcitabine/cisplatin arm (N = 46)",43.5%
